Experimental data: US8541598B2, “Biodegradable solvents for the chemical industry” (Dublin City University, priority 2007, dated 2013)
Entries after “also recorded” stand apart in the source; their conditions may differ.

Key:
[1] = tested on: Pseudomonas aeruginosa, Escherichia coli, Klebsiella sp., Salmonella sp., Staphylococcus aureus, Enterococcus sp., Bacillus subtilis; assay: Antimicrobial activity / minimum inhibitory concentrations on seven strains of bacteria; type: cell-based; conditions: seven strains of bacteria
[2] = tested on: E. coli; assay: Percentage kill of bacteria by KG20; type: cell-based, Escherichia coli
Description: (§1) A test reference study with 1-methyl-3-decyloxy-carbonyl methylimidazole bromide salt KG20, known to be toxic due to the long alkyl chain, has been completed to provide reference data. This experiment compares, for the same side chain length, the impact of the presence of the oxygen (e.g. KG15) on toxicity.

[3] = tested on: P. aeruginosa; assay: Percentage kill of bacteria by KG20; type: cell-based, Pseudomonas aeruginosa
Description: as §1

[4] = tested on: Enterococcus sp.; assay: Percentage kill of bacteria by KG20; type: cell-based
Description: as §1

[5] = tested on: Klebsiella sp.; assay: Percentage kill of bacteria by KG20; type: cell-based
Description: as §1

[6] = tested on: Salmonella sp.; assay: Percentage kill of bacteria by KG20; type: cell-based
Description: as §1

[7] = tested on: S. aureus; assay: Percentage kill of bacteria by KG20; type: cell-based, Staphylococcus aureus
Description: as §1

[8] = tested on: B. subtilis; assay: Percentage kill of bacteria by KG20; type: cell-based, Bacillus subtilis
Description: as §1

[9] = tested on: microbes; conditions: literature (Bodor et al.); cited from earlier work

For CCCCCCCCCCOC(=O)Cn1cc[n+](C)c1.[Br-] [KG20, 3-methyl-1-(decanoxycarbonylmethyl)imidazolium bromide], the “toxicity / antibacterial activity in words” value [1] was “toxic to all the different bacteria screened; also recorded: potent antibacterial”, the Percentage kill ([2]; 3.9 μg/ml) was 10% and the Percentage kill ([2]; 7.8 μg/ml) was 8.5%. For the same compound, the Percentage kill ([2]; 15.62 μg/ml) was 17%, the Percentage kill ([2]; 31.25 μg/ml) was 28% and the Percentage kill ([2]; 62.5 μg/ml) was 37%. It also gave a Percentage kill ([2]; 125 μg/ml) of 92%, a Percentage kill ([2]; 250 μg/ml) of 92% and a Percentage kill ([2]; 500 μg/ml) of 82%. It also gave a Percentage kill ([2]; 1000 μg/ml) of 91%, a Percentage kill ([3]; 3.9 μg/ml) of 0% and a Percentage kill ([3]; 7.8 μg/ml) of 0%. The Percentage kill ([3]; 15.62 μg/ml) was 0%, the Percentage kill ([3]; 31.25 μg/ml) was 6% and the Percentage kill ([3]; 62.5 μg/ml) was 0%. The Percentage kill ([3]; 125 μg/ml) was 55.5%, the Percentage kill ([3]; 250 μg/ml) was 82% and the Percentage kill ([3]; 500 μg/ml) was 82%. It also gave a Percentage kill ([3]; 1000 μg/ml) of 100%, a Percentage kill ([4]; 3.9 μg/ml) of 6.5% and a Percentage kill ([4]; 7.8 μg/ml) of 6%. It also gave a Percentage kill ([4]; 15.62 μg/ml) of 23%, a Percentage kill ([4]; 31.25 μg/ml) of 18.7% and a Percentage kill ([4]; 62.5 μg/ml) of 48.7%. For the same compound, the Percentage kill ([4]; 125 μg/ml) was 49.5%, the Percentage kill ([4]; 250 μg/ml) was 83.4% and the Percentage kill ([4]; 500 μg/ml) was 84%. For the same compound, the Percentage kill ([4]; 1000 μg/ml) was 96.4%, the Percentage kill ([5]; 3.9 μg/ml) was 0% and the Percentage kill ([5]; 7.8 μg/ml) was 0%. For the same compound, the Percentage kill ([5]; 15.62 μg/ml) was 0%, the Percentage kill ([5]; 31.25 μg/ml) was 0% and the Percentage kill ([5]; 62.5 μg/ml) was 7%. The Percentage kill ([5]; 125 μg/ml) was 21%, the Percentage kill ([5]; 250 μg/ml) was 64% and the Percentage kill ([5]; 500 μg/ml) was 68.2%. The Percentage kill ([5]; 1000 μg/ml) was 91.8%, the Percentage kill ([6]; 3.9 μg/ml) was 0% and the Percentage kill ([6]; 7.8 μg/ml) was 0%. It also gave a Percentage kill ([6]; 15.62 μg/ml) of 0%, a Percentage kill ([6]; 31.25 μg/ml) of 0% and a Percentage kill ([6]; 62.5 μg/ml) of 10%. The Percentage kill ([6]; 125 μg/ml) was 58%, the Percentage kill ([6]; 250 μg/ml) was 73.5% and the Percentage kill ([6]; 500 μg/ml) was 88%. The Percentage kill ([6]; 1000 μg/ml) was 86%, the Percentage kill ([7]; 3.9 μg/ml) was 66% and the Percentage kill ([7]; 7.8 μg/ml) was 90%. For the same compound, the Percentage kill ([7]; 15.62 μg/ml) was 88.2%, the Percentage kill ([7]; 31.25 μg/ml) was 86.4% and the Percentage kill ([7]; 62.5 μg/ml) was 90.3%. It also gave a Percentage kill ([7]; 125 μg/ml) of 80.7%, a Percentage kill ([7]; 250 μg/ml) of 93.8% and a Percentage kill ([7]; 500 μg/ml) of 96%. For the same compound, the Percentage kill ([8]; 3.9 μg/ml) was 0%, the Percentage kill ([8]; 7.8 μg/ml) was 0% and the Percentage kill ([8]; 15.62 μg/ml) was 0%. For the same compound, the Percentage kill ([8]; 31.25 μg/ml) was 0%, the Percentage kill ([8]; 62.5 μg/ml) was 0% and the Percentage kill ([8]; 125 μg/ml) was 80.2%. For the same compound, the Percentage kill ([8]; 250 μg/ml) was 81.5%, the Percentage kill ([8]; 500 μg/ml) was 83.2% and the Percentage kill ([8]; 1000 μg/ml) was 100%.

In the case of CCCCCCCCCCCC(=O)OCn1cc[n+](C)c1.[Cl-] [compound 6, 1-[(n-Dodecanoyloxy)methyl]-3-methylimidazolium Chloride], the “antimicrobial activity in words” value [9] is listed as “effective antimicrobial activity at ppm concentrations; also recorded: potent antibacterials”.
